Reference: patent publication US6982082B1, “Gene therapy by cell specific targeting” (President and Fellows of Harvard College, priority 1996, dated 2006)

Tests used:
[1] = system: NFAT signaling in Jurkat cells, NFAT-SEAP alone (endogenous cyclophilins); assay: cellular NFAT-signaling assay, Jurkat cells transfected with NFAT-SEAP alone; type: cell-based
Protocol: (§1) FIG. 1 is a graph showing the cellular assay for calcineurin-mediated NFAT-signalling.
(§2) CypA and mutants were sub-cloned from pGEX based expression vectors into pBJ5, a eukaryotic expression vector containing an N-terminal FLAG epitope tag. The signaling assay was performed as previously described in Belshaw, P. J., Spencer, D. M., Crabtree, G. R. & Schreiber, S. L., Chemistry & Biology, 3:731–8 (1996). Briefly 10^7 Jurkat cells were electroporated with NFAT-SEAP reporter plasmid (1 μg) alone or in combination with a Cyp expression vector (5 μg). After 20 hours, cells were stimulated in 96 well plates with phorbol ester (PMA)(50 ng/mL) and ionomycin (1 μM), which mimics T cell activation and receptor signaling. […] Twenty-four hours later, cells were assayed for SEAP activity.

CypA wild type = molecular target: T1, CypA wild type (Homo sapiens, UniProt P62937); assay: direct fluorescence binding assay, wild type CypA; settings: in words
T1 construct: made in house; host or cells: E. coli
Protocol: (§3) To determine CpSar11-CsA's binding characteristics, both the unmodified CypA and the modified CypA (S99T, F113G, C115M) (CypAgtm) was overexpressed in E. coli and purified according to standard techniques. The binding constants for CpSar11-CsA for each receptor was determined with a direct fluorescence binding assay according to the procedure described in Belshaw, P. J., Schoepher, J. G., Lui, K-Q., Morrison, K. L. & Schreiber, S. L., Angew Chem. Int. Ed. Engl. 34:2129–32 (1995).
(§4) Kds were determined using a direct fluorescence binding assay as previously described in Belshaw et al., supra.

[2] = system: NFAT signaling in Jurkat cells, CypA wild type + NFAT-SEAP; assay: cellular NFAT-signaling assay (NFAT-SEAP reporter), Jurkat cells coexpressing wild type CypA; type: cell-based
Excerpt: as §1
(§5) Since it is the composite surface of Cyp-CsA that binds to and thereby inhibits the phosphatase activity of Cn and as the modifications to both the receptor and ligand were expected to be buried in the complex, it was expected that these new receptor-ligand combinations would have the ability to inhibit calcineurin (Cn) and thus NFAT mediated gene activation. This hypothesis was confirmed by using a cellular assay in which NFAT-signaling was measured on a reporter gene, as described below.
as §2, with “activity. The data for each transfection are presented as percent SEAP activity relative to the signal for [CpSar11-CsA]=0.” for “activity.”

[3] = molecular target: T2, CypA (S99T, F113G, C115M) (CypAgtm) (Homo sapiens, UniProt P62937, C115M/F113G/S99T); assay: direct fluorescence binding assay, modified CypA
T2 construct: made in house; host or cells: E. coli
Protocol: as §3, §4

[4] = system: NFAT signaling in Jurkat cells, CypAgtm + NFAT-SEAP; assay: cellular NFAT-signaling assay (NFAT-SEAP reporter), Jurkat cells expressing CypAgtm; type: cell-based
Excerpt: as §1, §5
as §2, with “activity. The data for each transfection are presented as percent SEAP activity relative to the signal for [CpSar11-CsA]=0.” for “activity.”

[5] = system: NFAT signaling in cells expressing CypA (S99T, F113A) (CypAat); assay: cellular NFAT-signaling assay, cells expressing CypAat; type: cell-based
Protocol: as §2, with “activity. The data for each transfection are presented as percent SEAP activity relative to the signal for [CpSar11-CsA]=0.” for “activity.”
Presumably this was due to formation of endogenous Cyp-MeIle11-CsA complexes that inhibited Cn.

FKBP = FKBP (Homo sapiens, UniProt P62942); assay: binding to FKBP, same assay; settings: in words
[6] = system: signaling in cells without FKBP containing the compensatory mutation; assay: signaling in cells not transfected with compensatory FKBP; type: cell-based
FKBP12 F36V (FKBP^t−) = FKBP12 F36V (FKBP^t−) (Homo sapiens, UniProt P62942, F37V); assay: Scatchard analysis of binding of radiolabeled protein to FKBP^t−
FKBP12 F36V (FKBP^t−), sequence (P62942 whole entry F37V): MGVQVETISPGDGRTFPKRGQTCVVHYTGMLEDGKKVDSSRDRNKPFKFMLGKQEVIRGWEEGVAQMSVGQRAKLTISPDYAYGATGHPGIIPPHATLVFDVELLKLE

T2 sequence (P62937 whole entry S99T/F113G/C115M): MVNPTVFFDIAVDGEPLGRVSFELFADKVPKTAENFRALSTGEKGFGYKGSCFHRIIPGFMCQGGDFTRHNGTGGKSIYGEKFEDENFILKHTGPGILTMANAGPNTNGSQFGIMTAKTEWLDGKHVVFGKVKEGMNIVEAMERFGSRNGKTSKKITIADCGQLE
FKBP, sequence (P62942 whole entry): as the sequence (P62942 whole entry F37V) above, with V37F counted along it
T1 sequence (P62937 whole entry): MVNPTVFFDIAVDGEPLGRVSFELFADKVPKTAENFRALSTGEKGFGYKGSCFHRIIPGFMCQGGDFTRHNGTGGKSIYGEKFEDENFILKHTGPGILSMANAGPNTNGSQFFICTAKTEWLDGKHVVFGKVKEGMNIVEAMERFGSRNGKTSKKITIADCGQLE

C/C=C/C[C@@H](C)[C@@H](O)[C@H]1C(=O)N[C@@H](CC)C(=O)N(C)CC(=O)N(C)[C@@H](CC(C)C)C(=O)N[C@@H](C(C)C)C(=O)N(C)[C@@H](CC(C)C)C(=O)N[C@@H](C)C(=O)N[C@H](C)C(=O)N(C)[C@@H](CC(C)C)C(=O)N(C)[C@@H](CC(C)C)C(=O)N(C)[C@@H](C2CCCC2)C(=O)N1C [CpSar11-CsA, alpha-cyclopentyl, sarcosine11-CsA]
effect on reporter gene expression ([1]; concentrations up to 400 nM, cells expressing endogenous cyclophilins alone): little or no effect | affinity for wild type CypA (CypA wild type): little affinity | IC50 ([2]; CypA wild type + NFAT-SEAP, PMA and ionomycin stimulation, read-out: IC50 in Cellular NFAT-Signalling): > 400 nM | effect on reporter gene expression ([2]; concentrations up to 400 nM, cells coexpressing a wild type cyclophilin): little or no effect | Kd ([3]; CypAgtm, read-out: Binding Constant Kd): 9 nM | affinity for CypAgtm ([3]; in words): high affinity | IC50 ([4]; CypAgtm + NFAT-SEAP, PMA and ionomycin stimulation, read-out: IC50 in Cellular NFAT-Signalling): 25 nM | inhibition of NFAT signaling ([4]; cells expressing CypAgtm): potently inhibited NFAT signaling

MeIle11-CsA
inhibition of NFAT signaling ([1]; cells transfected with the NFAT reporter gene alone (data not shown)): still inhibited NFAT signaling | inhibition of NFAT signaling [5]: potently inhibited NFAT signaling

9-S-methoxy-FK506
binding to endogenous FKBP (FKBP): does not bind | effect on signaling [6]: no effect on signaling | Kd (FKBP12 F36V (FKBP^t−); Scatchard analysis): 5 nM | binding to FKBP12F36V (FKBP12 F36V (FKBP^t−); in words): does bind
